The IC50 is the midpoint of a concentration-inhibition curve.

The source of these data is patent publication US20080119462A1, “METHOD FOR TREATING VASCULAR HYPERPERMEABLE DISEASE” (Sucampo AG, priority 2003, published 2008).

The target of one assay is T1, Human platelet MAO (Homo sapiens, UniProt P27338).
T1 construct: human platelet MAO; from tissue; host or cells: human platelets
T1 sequence (P27338 1-520): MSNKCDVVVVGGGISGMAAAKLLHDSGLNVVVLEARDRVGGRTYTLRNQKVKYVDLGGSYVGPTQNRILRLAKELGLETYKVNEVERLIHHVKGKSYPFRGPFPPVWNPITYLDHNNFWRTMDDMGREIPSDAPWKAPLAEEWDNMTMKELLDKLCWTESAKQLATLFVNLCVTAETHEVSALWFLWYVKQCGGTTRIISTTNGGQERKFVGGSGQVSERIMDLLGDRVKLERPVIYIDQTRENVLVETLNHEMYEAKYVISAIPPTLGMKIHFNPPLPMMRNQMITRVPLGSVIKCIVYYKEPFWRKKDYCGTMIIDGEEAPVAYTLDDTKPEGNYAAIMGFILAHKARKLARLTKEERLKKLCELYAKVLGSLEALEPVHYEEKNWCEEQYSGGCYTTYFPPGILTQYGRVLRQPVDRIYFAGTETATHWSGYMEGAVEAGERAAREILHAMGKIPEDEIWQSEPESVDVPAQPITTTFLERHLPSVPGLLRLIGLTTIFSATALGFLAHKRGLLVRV
The experiment in a line: Monoamine oxidase (MAO) activity assay with 14C-phenylethylamine. The assay is classed as biochemical. The procedure: (§1) VAP-1 enzyme (SSAO) activity in both human and rat plasma was determined by a radiochemical-enzyme assay using ^14C-benzylamine as artificial substrate. The enzyme suspension prepared from blood plasma was pre-incubated with Compound A in 96-well microplate at room temperature for 30 min. The enzyme suspension was then incubated with ^14C-benzylamine (2×10^−5 mol/l final concentration) in a final volume of 50 μl at 37° C. for 1 hour. The enzyme reaction was terminated by adding 2 mol/l (50 μl) citric acid. The oxidized products were directly extracted into a 200 μl toluene scintillator, and its radioactivity was measured by a scintillation spectrometer. Monoamine oxidase (MAO) and diamine oxidase (DAO, histaminase) activities were also determined by similar method using ^14C-phenylethylamine and ^14C-putrescine as substrate, respectively. Cloned DAO from cDNA libraries was used in human DAO assay. Inhibition activity was expressed as IC50 (μmol/l) value.

Another assay has as its system retinal VEGF. As to the kind of experiment: Retinal VEGF level in STZ diabetic rats (Murine VEGF ELISA kit). The assay is classed as in vivo, rat. As to conditions: 0.1 mg/kg, sc, u.i.d. The procedure:
STZ diabetic rats were prepared in the same manner as in Example 2. Compound A (0.1 mg/kg, sc, u.i.d.) was administered from 3 days to 8 weeks after the STZ administration. To the normal group and STZ control group, a vehicle was treated. At 8 weeks from the STZ administration, the retina was removed from the animals and the retinal VEGF level was determined using a Murine VEGF ELISA kit.

Another assay concerns the target T2, Cloned human DAO (Homo sapiens, UniProt P19801).
T2 construct: made in house
T2 sequence (P19801 20-751): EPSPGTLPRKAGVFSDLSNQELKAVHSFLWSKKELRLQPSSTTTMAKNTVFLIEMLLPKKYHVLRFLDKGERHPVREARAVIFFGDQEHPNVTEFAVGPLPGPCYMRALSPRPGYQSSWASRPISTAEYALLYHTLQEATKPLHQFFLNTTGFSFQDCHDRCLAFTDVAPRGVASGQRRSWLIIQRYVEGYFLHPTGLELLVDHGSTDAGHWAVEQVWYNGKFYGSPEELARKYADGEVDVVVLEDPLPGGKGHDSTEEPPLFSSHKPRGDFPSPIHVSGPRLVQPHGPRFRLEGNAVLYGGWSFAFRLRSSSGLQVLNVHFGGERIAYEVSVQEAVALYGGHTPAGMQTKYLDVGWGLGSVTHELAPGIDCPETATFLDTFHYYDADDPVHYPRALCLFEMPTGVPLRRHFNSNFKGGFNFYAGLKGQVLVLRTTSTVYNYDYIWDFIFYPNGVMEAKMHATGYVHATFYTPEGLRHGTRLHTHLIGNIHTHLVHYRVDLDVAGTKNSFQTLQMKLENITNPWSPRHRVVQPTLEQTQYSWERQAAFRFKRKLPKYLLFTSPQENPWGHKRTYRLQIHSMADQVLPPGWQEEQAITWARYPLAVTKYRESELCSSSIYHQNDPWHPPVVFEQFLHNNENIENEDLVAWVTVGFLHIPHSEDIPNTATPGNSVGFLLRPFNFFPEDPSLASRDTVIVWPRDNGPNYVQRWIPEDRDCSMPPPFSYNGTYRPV
The experiment in a line: Diamine oxidase (DAO, histaminase) activity assay with 14C-putrescine. The assay is classed as biochemical. The procedure:
as §1

The next assay has as its target T3, Rat plasma SSAO (Rattus norvegicus, UniProt O08590).
T3 construct: The enzyme suspension prepared from blood plasma was pre-incubated with Compound A; from tissue; host or cells: rat blood plasma
T3 sequence (O08590 27-763 limits assumed): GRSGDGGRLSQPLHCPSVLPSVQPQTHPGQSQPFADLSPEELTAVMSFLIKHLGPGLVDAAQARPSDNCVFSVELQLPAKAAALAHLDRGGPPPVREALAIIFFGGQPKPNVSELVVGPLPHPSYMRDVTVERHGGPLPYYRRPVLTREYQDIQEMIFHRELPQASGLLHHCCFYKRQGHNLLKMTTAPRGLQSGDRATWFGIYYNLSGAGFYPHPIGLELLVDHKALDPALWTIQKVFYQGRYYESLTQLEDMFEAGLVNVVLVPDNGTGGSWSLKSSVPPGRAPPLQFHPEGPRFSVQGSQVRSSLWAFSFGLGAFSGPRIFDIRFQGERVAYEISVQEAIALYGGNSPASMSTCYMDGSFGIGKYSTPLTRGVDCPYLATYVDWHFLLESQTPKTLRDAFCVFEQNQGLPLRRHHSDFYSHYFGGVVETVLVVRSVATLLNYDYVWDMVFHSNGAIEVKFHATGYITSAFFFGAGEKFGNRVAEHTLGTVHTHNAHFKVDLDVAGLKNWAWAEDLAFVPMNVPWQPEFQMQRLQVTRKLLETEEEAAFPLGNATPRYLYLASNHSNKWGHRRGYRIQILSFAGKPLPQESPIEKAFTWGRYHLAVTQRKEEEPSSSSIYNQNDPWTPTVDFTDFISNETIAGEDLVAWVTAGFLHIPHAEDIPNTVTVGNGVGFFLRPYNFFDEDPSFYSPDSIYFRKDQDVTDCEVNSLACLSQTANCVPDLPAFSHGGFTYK
As to the kind of experiment: Radiochemical-enzyme assay of VAP-1 enzyme (SSAO) activity with 14C-benzylamine, rat plasma. The assay is classed as biochemical. The procedure: as §1

For the molecule `CC(=O)Nc1nc(CCc2ccc(NC(=N)N)cc2)cs1` [Compound A, N-{4-[2-(4-{[amino(imino)methyl]amino}phenyl)ethyl]-1,3-thiazol-2-yl}acetamide], at Human platelet MAO, the “Inhibition of the enzyme activity of human platelet MAO (in words)” value is listed as “not”. Also, the IC50 was > 100 µM at Human platelet MAO (14C-phenylethylamine as substrate, read-out: Inhibitory effect (IC50 values) Human platelet MAO); > 100 µM at Cloned human DAO (14C-putrescine as substrate, read-out: Inhibitory effect (IC50 values) Cloned human DAO); 0.012 µM at Rat plasma SSAO (30 min pre-incubation, 14C-benzylamine 2×10^−5 mol/l, 37° C., 1 hour, read-out: Inhibitory effect (IC50 values) Rat plasma SSAO). Further, the “Effect on the increased retinal VEGF level in STZ diabetic rats (in words)” value in the assay with retinal VEGF (3 days to 8 weeks after STZ) is “completely inhibited”. Besides, the “Retinal VEGF level” value in the assay with retinal VEGF (STZ diabetic rats, from 3 days to 8 weeks after STZ, mean ± S.E.M., 10 rats) was determined as 28.3 ± 2.72 pg/mg protein. In addition, the “Inhibition of the enzyme activity of cloned DAO (in words)” value on Cloned human DAO is reported as “not”. Further, the “Inhibition of the enzyme activity of rat plasma SSAO (in words)” value at Rat plasma SSAO is given as “completely inhibited”.
